Test results from a melting point compilation (Tetko et al.; mined from patent text by program, amines drawn as free bases though some values may be those of a salt).

SMILES | melting point
COc1cc(Nc2nccc(-c3ccc(NCCN)nc3)n2)cc(OC)c1OC | 117 to 118 °C
CC(C)C(NC(=O)N(C)Cc1ccccn1)C(=O)N(C(=O)C(NC(=O)N(C)Cc1nccs1)C(C)C)C(Cc1ccccc1)CC(O)CCc1ccccc1 (configuration not stated) | 156 to 158 °C
CC(NC(=O)C(N)Cc1ccccc1)C(N)=O (configuration not stated) | 95 to 97 °C
COc1ccc2c(c1)CCC1C2CCC2(C)C(NCCCCCCNc3ccc([N+](=O)[O-])cc3[N+](=O)[O-])CCC12 (configuration not stated) | 90 to 92 °C
COc1ccc(CN=Nc2c(O)c(O)c(N=NCc3ccc(OC)cc3)c3ccccc23)cc1 | 245 to 251 °C
c1n[nH]c2c1CCc1[nH]ncc1-2 | 219 to 221 °C
CC(C)(C)C1c2ccccc2CCC1O (configuration not stated) | 104 °C
Cc1cc2cc(CN3CCC(CCCC(N)=O)CC3)cnc2cc1NC(=O)c1ccc(-c2ccc(F)cc2)cc1 | 228 °C
N#Cc1c(OCc2ccc(F)cc2F)ccn(Cc2cccc(F)c2)c1=O | 187 to 190 °C
CN1CCC(OC2c3cccc(Br)c3CCn3cc(-c4ccccc4)nc32)CC1 (configuration not stated) | 83 °C
N#Cc1ccc(Cn2c(N3CCC(CNc4nccc(O)n4)CC3)nc3ccccc32)cc1 | 198 °C
CS(=O)(=O)c1ccc(C(CC2CCCC2)C(=O)Nc2ccccn2)cc1F (configuration not stated) | 76 to 79 °C
COc1cc(OCc2ccc3c(c2)C(C)(C)CCC3(C)C)ccc1C(=O)OCc1ccccc1 | 112 to 113 °C
O=c1oc2ccc(Cl)cc2c(O)c1CCO | 185 to 186 °C
Cc1noc(NS(=O)(=O)c2ccc(Br)cc2)c1Br | 146 to 149 °C
CN(C)CCCNC(=O)c1ccc(-c2nnc(CSCCOc3ccc(Cl)cc3Cl)o2)cc1 | 140 to 141 °C
CCOC(=O)CC(=O)c1cccs1 | 143 to 145 °C
CC(C)(C)OC(=O)N1C(=O)C(C2=COc3ccccc3O2)=C(c2cn(C(=O)OC(C)(C)C)c3ccc(OCc4ccccc4)cc23)C1=O | 76 °C
Cc1nc2ccc([N+](=O)[O-])cn2c(=O)c1CCCl | 170 °C
CCS(=O)(=O)N[C@H](C(=O)NCCc1cc(Br)c(OCc2ccccc2)c(OC)c1)C(C)C | 128 to 130 °C
C=Cc1ccc2cc(C3CCN(Cc4ccccc4)CC3)ccc2c1 | 112 to 114 °C
N#Cc1c(N2CCN(C(=O)c3ccco3)CC2)c2cccnc2n(Cc2ccccc2)c1=O | 206 °C
N#Cc1nn(-c2c(Cl)cc(C(F)(F)F)cc2Cl)c(Cl)c1SC(F)(F)F | 131 to 132 °C
CN1CCC(Sc2cc3c(cc2Cl)[nH]c(=O)n3C)CC1 | 210 to 212 °C
Cc1nc2c(N)nc3ccccc3c2n1CCCOCC#Cc1ccccc1 | 160 to 162 °C
CCCCc1nc(=O)c2ccc(C(=O)OCC)cc2[nH]1 | 145 °C

SMILES | melting point
O=[N+]([O-])c1ccc2c(c1)C=CCCO2 | 94 to 95.5 °C
COc1ccc2[nH]c(S(=O)Cc3cc(N)c(Br)cn3)nc2c1 (configuration not stated) | 130 to 132 °C
C#CCN1CCCc2ccc(OC(=O)Nc3ccccc3OC)cc21 | 83 °C
FC(F)(F)c1ccccc1-c1ccnc2ncnn12 | 149 to 151 °C
Cc1sc2ncc(CO)n2c1C | 166 to 167 °C
CC(C)(C)OC(=O)N[C@@H](Cc1ccccc1)C(=O)N[C@H]1CCOC1=O | 132 to 133 °C
COc1cccc(CN2Cc3cc(OC)c(OCc4ccccc4)cc3C(O)C2)c1 (configuration not stated) | 115 to 116 °C
COC(=O)C(CC1(C)C(=O)Nc2ccccc21)NC(=O)c1ccc(Cl)cc1 (configuration not stated) | 201 to 202 °C
CC(=O)Nc1cccc(S(=O)(=O)N2[C@H](C)CN(CC(=O)Nc3ccccc3C)C[C@@H]2C)c1 | 236 to 238 °C
COc1ccc2c(Cl)ccnc2c1 | 86 to 88 °C
CCCCC(=N)NC(=O)Nc1ccc(OC)cc1 | 144 to 145 °C
CCOC(=O)/C=C/c1ccc(OCCc2nc(-c3cccc(C)c3)oc2C)cc1 | 90 to 91 °C
CCCCCCCCCCCCCCCCCC1CC(OC(=O)c2ccccc2)C(CC)C(=O)O1 (racemic) | 64.5 to 66 °C
Cc1csc2c(Br)cc3cc(C(=O)O)[nH]c3c12 | 229 to 241 °C
COc1ccc(C=Nc2ccccc2SCc2ncon2)cc1OC | 146 °C
CCN1C2=C(CSC2)C(=O)Nc2ccccc21 | 195 to 197 °C
CC(C)(C)OC(=O)CN1C(=O)[C@@H](NC(=O)OCc2ccccc2)[C@H]1CCc1ccco1 | 82 to 84 °C
COc1ccc(C=CC(=O)O)cc1-c1cc2c(cc1OCCCCCC(=O)O)C(C)(C)CCC2(C)C | 166 to 168 °C
CCCn1c(=O)c2[nH]c(/C=C/c3cc(OC)c(OCc4ccccc4)c(OC)c3)nc2n(CCC)c1=O | 221 °C
C=CCNc1nc(NCC=C)nc(NCCC2CC(C)(C)NC(C)(C)C2)n1 | 74 to 75 °C
CNc1ccc(NC(=O)OC2CCCC2)cc1C(Cc1ccc(C(=O)OC)cc1OC)=NOC(C)=O | 124 to 126 °C
Cc1nc2ccc3c(c2s1)C(=O)CC3 | 163 to 165 °C
COc1cc(C(O)C(C)C)cc2c1OC(C)(C)C2 (configuration not stated) | 113 to 116 °C
CCC(=O)Oc1cccc2c1C(=O)c1c(O)cccc1C2C(=O)CC (configuration not stated) | 125 °C
CCCCCCCCCC(C)(C)c1cc(C(=O)Sc2ccc(C(=O)O)cc2)ccc1OC | 186 to 187 °C
O=C1NC(=O)C(Cc2ccc(OCCON=Cc3ccccn3)cc2)S1 (configuration not stated) | 161 to 163 °C

SMILES | melting point
CC=CC(=O)CS(=O)(=O)C(c1ccc(Cl)cc1)c1ccc(Cl)cc1 | 114 to 116 °C
CCC(=O)Nc1c(C(=O)c2ncccc2CO)[nH]c2cc(Cl)ccc12 | 198 to 199 °C
CCCn1c(C)nn(-c2ccc(N3CCN(c4ccc(OC)cc4)CC3)cc2)c1=O | 202 °C
NS(=O)(=O)NCc1csc2ccccc12 | 101 °C
CCCCC(NC(=O)C(CC(C)C)NC(=O)c1ccc2ccccc2c1)C(=O)CSCc1ccco1 (configuration not stated) | 97 to 99 °C
O=C(COc1cc(C(=O)O)c(O)c2ccccc12)Nc1ccccc1 | 165 to 166 °C
NC(Cc1ccc(O)c(O)c1)P(O)O (configuration not stated) | 237 to 238 °C
COc1cc2c(cc1OC)C(Cc1cc(I)c(NC(C)=O)c(I)c1)N(C(=O)C(F)(F)F)CC2 (configuration not stated) | 218 to 219 °C
Fc1ccc(C2CCC3(CC2)OCCO3)cc1 | 51 to 53 °C
CCN1C(=O)c2cscc2Nc2ccccc21 | 175 to 177 °C
CC1CCCCC1N(Cc1ccc(C(=O)NC(C)(C)C(=O)O)cc1)S(=O)(=O)c1ccc(Cl)cc1 (configuration not stated) | 121 to 122 °C
O=C(c1cccnc1)c1ccc2c(c1)CN1C=CNC1=N2 | 275 °C
COc1cc(C(C)=O)cc(N)c1OC | 63 to 65 °C
CCOC(=O)COC1CCC2C3CCC4NC(=O)CCC4(C)C3CCC12C (configuration not stated) | 170 to 172 °C
O=c1[nH]c2cc(Sc3cccc4cnccc34)c([N+](=O)[O-])cc2s1 | > 270 °C
O=C(CCl)NOC(c1ccccc1)c1ccccc1 | 115 to 117 °C
Oc1cccc(-n2nnnc2S)c1 | 176 to 178 °C
Oc1ccc(OCCN2CCN(c3ccccc3)CC2)cc1 | 95 to 100 °C
CCCCCCCCCCC1CN(C)C(=O)N(O)C1 (configuration not stated) | 63 to 64.5 °C
Nc1nc(CN2CCC(c3c[nH]c4ccccc34)CC2)cs1 | 195 to 198 °C
CN1CCN(c2ccc3ccccc3n2)CC1 | 110 to 112 °C
O=C(NCCO)c1cccc(-c2cccc3c2OC(Cc2cccc(C(F)(F)F)c2)C3)c1 (configuration not stated) | 161 to 162 °C
CCOC(=O)Cn1c(N)nc(-c2ccccc2)c1-c1ccccc1 | 173 to 175 °C
N#CCCCCCCc1nc(-c2ccc(Cl)cc2)c(-c2ccc(Cl)cc2)o1 | 64 °C
CC1(C)CC(=O)C2=C(C1)NC1=C(C(=O)CC(C)(C)C1)C2c1cccc(Oc2cc(Cl)cc(Cl)c2)c1 | 254 to 255 °C
CN=C1SCC(O)(c2ccc(Cl)c(S(=O)(=O)NCc3cccnc3)c2)N1C (configuration not stated) | 152 to 153 °C

SMILES | melting point
CC(Cl)(Cl)C1(Cl)N=C(Cl)C(Cl)=N1 | 58 to 60 °C
Cc1ccc(-c2cc(C(N)=O)c(N)s2)cc1 | 228 to 230 °C
O=C(O)Cn1cc2c(=O)n3c(nc2n1)SCC3 | 276 °C
O=C(c1cc(C(F)(F)F)cc(C(F)(F)F)c1)N1CCC2(CC1)C(=O)NCN2c1ccc(Cl)c(Cl)c1 | 220 to 222 °C
Cc1cn(N)c2ccc(OCc3ccccc3)cc12 | 104 to 106 °C
N#Cc1ccc(O)cc1C(N)=O | 268 to 270 °C
COc1cc(Br)nc(NC(=O)NS(=O)(=O)c2cccc3c2SCC3)n1 | 238 to 240 °C
CCOC(C(=O)O)c1ccc2c(c1)C(C)(C)CCC2(C)C (racemic) | 106 to 109 °C
CS(=O)(=O)N1CCN2C(=O)N(c3ccc(C#N)c4ccccc34)C(=O)C2C1 (configuration not stated) | 207 to 216 °C
CN(C)c1cc(C(F)(F)F)cc(Cl)c1-n1nc(C#N)c(S(=O)(=O)C(F)(F)F)c1N | 197 °C
C#CCn1c(=O)sc2cc(F)c(-n3c(=O)cc(C)n(C)c3=O)cc21 | 180 to 181 °C
O=C(O)CCc1cn(Cc2ccc(OCc3cccnc3)cc2)nc1-c1ccccc1 | 112 to 113 °C
CN[C@H]1CCN(c2c(-c3ccccc3)c(C)c(C#N)c3nc(C(=O)N(C)C)oc23)C1 | 148 to 151 °C
CCOC(=O)CNc1nc2ccccc2s1 | 91 to 97 °C
O=C(O)C1(CCCCCCCCCCCCC2(C(=O)NCCO)CC2)CC1 | 81.1 to 83.8 °C
CC(C)=CCN1CCn2c(=O)[nH]c3cc(Cl)cc(c32)C1C (configuration not stated) | 139 °C
COc1ccc(Cl)cc1N1CCN(CCCNC(=O)c2cccc3c(=O)c(C)c(C(=O)N(C)C)oc23)CC1 | 151 to 153 °C
CC(C)(C)OC(=O)c1cccc(O)c1 | 94 to 96 °C
CC1N(C)C=C([N+](=O)[O-])N1CCOC(=O)Nc1cccc(C(N)=O)c1 (configuration not stated) | 207 °C
O=C1CN(NC(=O)NC(C(=O)O)c2ccccc2)C(=O)N1 (configuration not stated) | 139 to 143 °C
COC(=O)c1cccc(COc2cccc(OCc3ccc4ccccc4n3)c2)c1 | 93 to 94 °C
CC(=O)NCCC1=C(C(C)C)Cc2ccc3nc(C)oc3c21 | 135 to 138 °C
N#Cc1cc(C#N)c(SC2SCC(O)C(O)C2O)c(C#N)c1 (configuration not stated) | 86 to 96 °C
O=C(O)Cc1cc(Cl)ccc1OCc1ccccc1 | 76 to 77.5 °C
